Values after ≈ are worked out from the molar mass of the structure shown. Read-outs that look alike come from different tables or passages of the source.
Legend:
[1] = tested on: Propionibacterium acnes 44; test: Susceptibility of anaerobic bacteria, agar dilution; format: cell-based; conditions: read-out: 24 Hr. Minimum Inhibitory Concentration
[2] = tested on: Peptostreptococcus intermedius 1264; test: as above; format: cell-based; conditions: read-out: 24 Hr. Minimum Inhibitory Concentration
[3] = tested on: Fusobacterium necrophorum 13859; test: as above; format: cell-based; conditions: Fusobacterium necrophorum, 13859, 24 h, read-out: 24 Hr. Minimum Inhibitory Concentration
[4] = tested on: Bacteroides fragilis sp. fragilis 1877; test: as above; format: cell-based; conditions: Bacteroides fragilis, 24 h, read-out: 24 Hr. Minimum Inhibitory Concentration
[5] = tested on: Clostridium perfringens 81; test: microbe, parasite or virus in culture; format: cell-based; conditions: Clostridium perfringens, 81, 24 h, read-out: 24 Hr. Minimum Inhibitory Concentration
Clostridium ramosum 1313 = test: Susceptibility of anaerobic bacteria, agar dilution; format: cell-based; conditions: Thomasclavelia ramosa, 24 h; Clostridium ramosum 1313; read-out: 24 Hr. Minimum Inhibitory Concentration
[6] = tested on: Bacteroides fragilis sp. vulgatus 1211; test: as above; format: cell-based; conditions: Bacteroides fragilis, 24 h, read-out: 24 Hr. Minimum Inhibitory Concentration
[7] = tested on: Fusobacterium symbiosum 1470; test: as above; format: cell-based; conditions: Fusobacterium, 1470, 24 h, read-out: 24 Hr. Minimum Inhibitory Concentration
[8] = tested on: Peptococcus anaerobius 1428; test: as above; format: cell-based; conditions: 24 h, read-out: 24 Hr. Minimum Inhibitory Concentration
[9] = tested on: Bacteroides fragilis sp. thetaiotaomicron 1438; test: as above; format: cell-based; conditions: Bacteroides fragilis, 24 h, read-out: 24 Hr. Minimum Inhibitory Concentration
[10] = tested on: Bacteroides fragilis sp. fragilis 1936B; test: as above; format: cell-based; conditions: Bacteroides fragilis, 24 h, read-out: 24 Hr. Minimum Inhibitory Concentration
[11] = tested on: Veillonella alcalescens 1; test: as above; format: cell-based; conditions: read-out: 24 Hr. Minimum Inhibitory Concentration
[12] = tested on: Clostridium septicum bovine; test: as above; format: cell-based; conditions: 24 h, read-out: 24 Hr. Minimum Inhibitory Concentration
Method: (§1) The susceptibility of anaerobic bacteria, both gram positive and gram negative, to a representative number of the novel compounds of this application was determined using the agar dilution method. The bacteria used were isolated from patients hospitalized at the Indiana University Medical Center. The isolates were identified in the anaerobe laboratory of the Medical Center by the criteria established by Dowell et al., Laboratory Methods in Anaerobic Bacteriology. Public Health Serv. Publ. No. 1803 (1968) [Center for Disease Control, Atlanta, Ga.]; and by Smith et al., The Pathogenic Anaerobic Bacteria, pages 96-136 (1968) [Charles C. Thomas, Publisher, Springfield, Ill.]. All the organisms were maintained in chopped meat glucose medium (Scott Labs) at room temperature.
(§2) The method used for the agar dilution tests was based on the studies of Sutter et al., Antimicrob. Ag. Chemother. 3, 188-193 (1973). The strains of anaerobic bacteria were grown in 16 × 120 mm. tubes for 16 to 18 hours in Thioglycolate medium without indicator--135C (Becton, Dickinson and Co.), to which was added 5 mcg. of hemin per milliliter prior to autoclaving, plus 1 mg. of sodium bicarbonate and 0.1 mcg. of filter-sterilized menadione per milliliter after autoclaving. The growth tubes for the bacteria Veillonella alcalescens were additionally supplemented with 5 mg. of sodium lactate per milliliter. The strains were adjusted to the turbidity of the No. 1 McFarland standard in Thioglycolate medium without indicator--135C containing an additional 0.13 percent Bacto-agar (Difco). Each strain was then applied to the surface of the petri plate (100 mm. × 15 mm.) by means of a replicator.
(§3) For the agar dilution studies, two-fold dilutions of the test compounds were prepared in deionized water to which was then added laked sheep blood and filter-sterilized menadione so the concentrations after the agar dilution were 5 percent and 10 mcg./ml. respectively. An equal volume of double strength Brucella agar (Becton, Dickinson and Co.) was mixed with each dilution in a water bath held at 50°C. and then poured onto the petri plates.
(§4) All of the procedures were done inside a plastic glove box, except for the incubation of the growth tubes and the pouring of the plates. After the plates hardened, they were put inside the glove box for a minimum of two hours before they were inoculated. Generally, the glove box procedures of Aranki et al., Applied Microbiology 17, 568-576 (1969), were followed, but the following modifications were used. Dry materials were introduced into the glove box by evacuating the lock to 28 inches of mercury and filling once with nitrogen gas, followed by evacuating in the same manner and filling with an 80 percent nitrogen plus 10 percent CO2 plus 10 percent hydrogen gas mixture. Liquid media and agar plates were introduced into the glove box by evacuating the lock to 10 inches of mercury and filling with gas four times. The nitrogen gas was used to fill the lock for the first two cycles of evacuation, with the gas mixture described above used for the final two fillings.
(§5) All the plates were incubated at 37°C. in Gas Pak jars (Becton, Dickinson and Co.) containing palladium-coated alumina catalysts (reactivated after each use). The results of the agar dilution tests were read after about 24 hours of incubation. The minimum inhibitory concentration (MIC) was recorded as the lowest concentration of test compound at which there was no growth.
(§6) The results of these in vitro tests are recorded in Charts 11 and 12 which follow. The test compounds are identified in the same manner as in the previous experiments. The antibiotics cephalothin and erythromycin were also run simultaneously with the novel compounds of this application, for comparison purposes, and the results are included in Charts 11 and 12 below.

[13] = tested on: Clostridium septicum 1128; test: as above; format: cell-based; conditions: 24 h, read-out: 24 Hr. Minimum Inhibitory Concentration
Method: as §1, §2, §3, §4, §5, §6

[14] = tested on: Bacteroides fragilis sp. vulgatus 1563; test: as above; format: cell-based; conditions: Bacteroides fragilis, 24 h, read-out: 24 Hr. Minimum Inhibitory Concentration
[15] = tested on: Eubacterium aerofaciens 1235; test: as above; format: cell-based; conditions: Collinsella aerofaciens, 1235, 24 h, read-out: 24 Hr. Minimum Inhibitory Concentration
[16] = tested on: Clostridium innocuum 1373; test: as above; format: cell-based; conditions: read-out: 24 Hr. Minimum Inhibitory Concentration
Actinomyces bovis 13684 = test: as above; format: cell-based; conditions: read-out: 24 Hr. Minimum Inhibitory Concentration
[17] = tested on: Propionibacterium acnes 79; test: as above; format: cell-based; conditions: Cutibacterium acnes, 79, 24 h, read-out: 24 Hr. Minimum Inhibitory Concentration
Pasteurella multocida = test: Efficacy against Pasteurella multocida infections in mice when administered by injection (Experiment 1); format: in vivo, Swiss mice; conditions: ip, 2.5 mg./kg. i.p.
Method: The efficacy of the novel compounds against Pasteurella multocida infections in mice when administered by injection was studied.
Female Swiss mice weighing from 15 to about 20 g. were used. The test compound, 5.0 mg., was weighed out and dissolved in 0.5 ml. of dimethyl sulfoxide, and this solution was added to 9.5 ml. of sodium carboxymethylcellulose suspension. Groups of five mice each were injected intraperitoneally with 0.1 ml. each of the above-prepared test composition. This preparation gave a test rate of 2.5 mg. per kilo of body weight of mouse. The compounds were tested at 2.5, 5.0, or 7.5 mg. per kilo of body weight of mouse, and the test preparations for rates of 5.0 and 7.5 mg./kg. were prepared in a similar manner. Immediately after receiving the test compound, the mice were challenged using log10 dilutions of 10^-^4, 10^-^5, 10^-^6, and 10^-^7 of a 16 to 20-hour tryptose broth culture of Pasteurella multocida at 0.1 ml. per mouse subcutaneously. Similar groups of nontreated control mice were also challenged, the challenge being administered subcutaneously. The groups of mice were observed daily for mortality and the total mortality in treated groups compared with that which occurred in the nonmedicated control groups. Each test compound is identified by the number of the example describing its preparation.
In the chart, column 1 lists the test compound; column 2, the dosage of test compound in mg./kg. of mouse body weight; column 3, the dilution of the challenge organism; and column 4, the ratio of the number of mice surviving the test at each dosage and challenge dilution to the number of mice tested at each dosage and challenge dilution, called the survival ratio.

Salmonella typhimurium = test: Control of infections caused by Salmonella typhimurium in chickens, subcutaneous (Experiment 2); format: in vivo; conditions: Salmonella enterica, sc, 144 h, 6 days, read-out: Survival Ratio (converted)
Method: The efficacy of the novel compounds in the control of infections caused by Salmonella typhimurium in chickens was evaluated in the following manner.
The test was carried out using day-old chicks weighing approximately 35 g. each. The chicks were divided into groups of 5 chicks per each dosage level. A portion of the chicks received the test compound which was suspended in 0.2 ml. of polyethylene glycol 200 and administered subcutanusly in the neck. […] All the chicks were challenged with a 1:200 dilution of a culture of the organism, 0.1 ml. of the dilution being injected into each chick in the leg intramuscularly. […] The test compounds are identified in the same manner as set forth in Experiment 1.
In the chart, column 1 lists the compounds tested; column 2, the dosage of test compound in mg./kg.; and column 3, the survival ratio.

`CC(=O)OCC1=C(C(=O)O)N2C(=O)[C@@H](NC(=O)Cc3cccs3)[C@H]2SC1` [Cephalothin, cephalothin, reference compound] showed an MIC ([1]; Cutibacterium acnes, 44, 24 h) of 2 µg/mL (≈ 5.04 µM), an MIC ([2]; Peptostreptococcus, 1264, 24 h) of 1 µg/mL (≈ 2.52 µM) and an MIC [3] of less than 0.5 µg/mL. The MIC [4] was greater than 128 µg/mL, the MIC [5] was 2 µg/mL (≈ 5.04 µM) and the MIC (Clostridium ramosum 1313) was 8 µg/mL (≈ 20.2 µM). For the same compound, the MIC [6] was 4 µg/mL (≈ 10.1 µM), the MIC [7] was 64 µg/mL (≈ 161 µM) and the MIC [8] was 2 µg/mL (≈ 5.04 µM). It also gave an MIC [9] of 64 µg/mL (≈ 161 µM), an MIC [10] greater than 128 µg/mL and an MIC ([11]; Veillonella parvula, 24 h, Veillonella alcalescens 1) of less than 0.5 µg/mL. It also gave an MIC [12] of 4 µg/mL (≈ 10.1 µM), an MIC [13] of 1 µg/mL (≈ 2.52 µM) and an MIC [14] of 8 µg/mL (≈ 20.2 µM). The MIC [15] was 2 µg/mL (≈ 5.04 µM), the MIC ([16]; 24 h, Clostridium innocuum 1373) was 8 µg/mL (≈ 20.2 µM) and the MIC (Actinomyces bovis 13684; 24 h, Actinomyces bovis 13684) was 2 µg/mL (≈ 5.04 µM). The MIC [17] was 1 µg/mL (≈ 2.52 µM).
`Cn1nc(-c2ncc([N+](=O)[O-])n2C)cc1N` [Compound 3, 5-Amino-1-methyl-3-(1-methyl-5-nitro-2-imidazolyl)pyrazole] showed an MIC ([1]; Cutibacterium acnes, 24 h, Propionibacterium acnes 44) of 0.5 µg/mL (≈ 2.25 µM), an MIC ([2]; 24 h, Peptostreptococcus intermedius 1264) of 16 µg/mL (≈ 72 µM) and an MIC [3] of less than 0.125 µg/mL. For the same compound, the MIC [4] was less than 0.125 µg/mL, the MIC [5] was less than 0.125 µg/mL and the MIC (Clostridium ramosum 1313) was 4 µg/mL (≈ 18 µM). It also gave an MIC [6] of less than 0.125 µg/mL, an MIC [7] of less than 0.125 µg/mL and an MIC [8] of less than 0.125 µg/mL. It also gave an MIC [9] of less than 0.125 µg/mL, an MIC [10] of less than 0.125 µg/mL and an MIC ([11]; Veillonella parvula, 1, 24 h) of less than 0.125 µg/mL. It also gave an MIC [12] of less than 0.125 µg/mL, an MIC [13] of less than 0.125 µg/mL and an MIC [14] of less than 0.125 µg/mL. For the same compound, the MIC [15] was less than 0.125 µg/mL, the MIC ([16]; [Clostridium] innocuum, 1373, 24 h) was less than 0.125 µg/mL and the MIC (Actinomyces bovis 13684; Actinomyces bovis, 13684, 24 h) was less than 0.125 µg/mL. The MIC [17] was less than 0.125 µg/mL.
`CC(=O)N(C(C)=O)c1c(C#N)c(-c2ncc([N+](=O)[O-])n2C)nn1C` [Compound 5, N-[4-Cyano-1-methyl-3-(1-methyl-5-nitro-2-imidazolyl)pyrazol-5-yl]diacetamide] was tested, and the responders at 2.5 mg/kg (Pasteurella multocida; challenge dilution 10^-^4, read-out: Survival Ratio (converted)) was 100%, the responders at 2.5 mg/kg (Pasteurella multocida; challenge dilution 10^-^5, read-out: Survival Ratio (converted)) was 90% and the responders at 2.5 mg/kg (Pasteurella multocida; challenge dilution 10^-^6, read-out: Survival Ratio (converted)) was 100%. For the same compound, the responders at 7.5 mg/kg (Salmonella typhimurium; 7.5 mg./kg. subcutaneous) was 0%, the responders at 15 mg/kg (Salmonella typhimurium; 15 mg./kg. subcutaneous) was 0% and the responders at 30 mg/kg (Salmonella typhimurium; 30 mg./kg. subcutaneous) was 40%. For the same compound, the responders at 60 mg/kg (Salmonella typhimurium; 60 mg./kg. subcutaneous) was 45%.
